Like-named read-outs stand apart in the source and are kept apart here.
What was measured:
F1F0-ATPase = molecular target: T1, F1F0-ATPase (Bos taurus, UniProt P13621); assay: Inhibition of F1F0-ATPase activity in synthesizing ATP; assay type: biochemical; conditions: inhibition of ATP synthesis by F1F0-ATPase; read-out: ATP Syn IC50
T1 construct: from tissue

Ramos cells = assay: Cytotoxicity in Ramos cells; assay type: cell-based; conditions: cytotoxicity in Ramos cells, read-out: Ramos Cell EC50

SMILES	IC50 (F1F0-ATPase) [µM]	EC50 (Ramos cells) [µM]	EC50 (Ramos cells; Homo sapiens) [µM]
CCOCC(C)N/C(=N/C(=O)c1ccc(F)c(F)c1)Nc1cc(-c2ccc(F)cc2)n[nH]1 (stereo not shown) [Compound A-267]	< 10	< 10	
Cc1ccc(-c2cc(N/C(=N\C(=O)c3ccc(F)c(F)c3)NCc3ccc(F)cc3Cl)[nH]n2)cc1 [Compound A-479]	< 10	< 10	
Cc1ccc(-c2cc(N/C(=N\C(=O)c3ccc(C(F)(F)F)cc3)NC3CC3)[nH]n2)cc1F [Compound A-195]	< 10	< 10	
Cc1cc(N/C(=N\C(=O)c2ccc(C(F)(F)F)cc2)NCC(C)(C)C)n[nH]1 [Compound A-155]	< 10	< 10	
O=C(/N=C(\Nc1cc(-c2ccc(Cl)cc2)n[nH]1)NC1CCC1)c1ccc(F)cc1 [Compound A-251]	< 10	< 10	
O=C(N=C(Nc1cc(F)cc(Cl)c1)Nc1cc(-c2ccc(F)cc2)n[nH]1)c1cccc(C(F)(F)F)c1 [Compound A-450]	< 10		< 10
O=C(/N=C(\Nc1cc(-c2cc(F)cc(F)c2)n[nH]1)NC1CCCC1)c1ccc(Cl)cc1 [Compound A-229]	< 10	< 10	
CC(C)(C)N/C(=N/C(=O)c1cccc(C#N)c1)Nc1cc(C(F)(F)F)[nH]n1 [Compound A-73]	< 10		< 10
CCC(C)NC(=NC(=O)c1ccc(C(F)(F)F)cc1)Nc1cc(-c2cc(F)cc(F)c2)n[nH]1 (stereo not shown) [Compound A-297]	< 10		< 10
O=C(N=C(Nc1cc(-c2ccc(F)cc2)[nH]n1)NC1CCOC1)c1ccc(F)cc1 (stereo not shown) [Compound A-511]	< 10	< 10	
CCOCCCN/C(=N/C(=O)c1ccc(C(F)(F)F)cc1)Nc1cc(-c2cc(F)cc(F)c2)n[nH]1 [Compound A-282]	< 10	< 10	
CC(C)(CO)N/C(=N/C(=O)c1ccc(F)cc1)Nc1cc(-c2ccc(F)cc2)n[nH]1 [Compound A-538]	< 10		> 10
O=C(/N=C(\Nc1cc(C(F)(F)F)n[nH]1)NC1CCC1)c1ccc(C(F)(F)F)cc1 [Compound A-91]	< 10		< 10
COc1ccc(C(=O)/N=C(/NCC(C)(C)C)Nc2cc(-c3ccc(F)cc3)[nH]n2)cc1 [Compound A-515]	< 10	< 10	
CC(C)(C)NC(=NC(=O)c1ccccc1)Nc1cc(C(F)(F)F)n[nH]1 [Compound A-544]	< 10		< 10
CC1(CN/C(=N/C(=O)c2cccc(F)c2)Nc2cc(-c3ccc(F)cc3)n[nH]2)CCCO1 (stereo not shown) [Compound A-201]	< 10	> 10	
COCC(C)NC(=NC(=O)c1ccc(F)cc1)Nc1cc(-c2cc(F)cc(F)c2)n[nH]1 (stereo not shown) [Compound A-275]	< 10	< 10	
Cc1ccc(-c2cc(N/C(=N\C(=O)c3ccc(C(F)(F)F)cc3)NC(C)C(C)C)[nH]n2)cc1F (stereo not shown) [Compound A-333]	< 10	> 10	
CC(C)(C)N/C(=N/C(=O)c1ccc(C(F)(F)F)cc1)Nc1cc(C(F)(F)F)n[nH]1 [Compound A-13]	< 10		< 10
COC[C@H](C)N/C(=N/C(=O)c1ccc(C)cc1)Nc1cc(C(F)(F)F)[nH]n1 [Compound A-534]	< 10	< 10	
CC(C)N/C(=N/C(=O)c1ccc(C(F)(F)F)cc1)Nc1cc(C(F)F)[nH]n1 [Compound A-58]	< 10		> 10
COc1ccc(-c2cc(N/C(=N\C(=O)c3ccc(Cl)c(F)c3)NCc3ccc(F)cc3Cl)[nH]n2)cc1 [Compound A-471]	< 10	> 10	
O=C(N=C(Nc1cc(-c2ccc(F)cc2)n[nH]1)NC1CCCC1)c1ccc(Cl)cc1 [Compound A-248]	< 10		< 10
COCC(C)NC(=NC(=O)c1ccnc(N2CCCC2)c1)Nc1cc(-c2ccc(F)cc2)[nH]n1 (stereo not shown) [Compound A-484]	< 10		< 10
COCC(C)NC(=NC(=O)c1cccc(F)c1)Nc1cc(-c2cc(F)cc(F)c2)n[nH]1 (stereo not shown) [Compound A-367]	< 10	< 10	
CC(CC#N)NC(=NC(=O)c1ccc(F)cc1)Nc1cc(-c2ccc(F)cc2)n[nH]1 (stereo not shown) [Compound A-490]	< 10		< 10
CC(C)CN/C(=N/C(=O)c1cccnc1C(F)(F)F)Nc1cc(-c2ccc(F)cc2)[nH]n1 [Compound A-166]	< 10	< 10	
CC(C)(C)N/C(=N/C(=O)c1ccc(C(F)(F)F)cc1)Nc1[nH]nc(C(C)(C)C)c1F [Compound A-340]	< 10	< 10	
CC(C)(C)N/C(=N/C(=O)c1ccc(C(F)(F)F)cc1)Nc1cc(-c2cc(F)cc(F)c2)n[nH]1 [Compound A-299]	< 10	< 10	
